Experimental data from patent US20220298038A1, “A METHOD FOR DISRUPTING BIOFILMS IN WASTEWATER SYSTEMS” (GRENOF PTY LTD, priority 2019, published 2022).
Where two headings read alike, the source gives them in different places.

Key:
[1] = cited from earlier work
biofilm = assay: Biofilm disrupting activity compared with other oxidants
Experimental: Peracetic acid is typically more reactive at higher temperature (5 times more reactive at 35° C. than 15° C.). […] This is believed to be due to the nature and type of radicals formed upon cleavage of the peracetic acid peroxy bond.

[2] = cited from earlier work; remark: listed apart in the source
[3] = cited from earlier work; remark: listed apart in the source
[4] = 35° C. vs 15° C.; cited from earlier work
[5] = cited from earlier work; remark: listed apart in the source
Catalase = settings: cited from earlier work
[6] = tested on: biofilm in a sewerage network; assay: Trial 2: H2S Odalog monitoring, manhole 200 m from Location 2; design: species or system sulphate reducing microbes and methanogenic archaea
[7] = standard oxidation potential (at pH 7)
[8] = Days 67-68, H2O2 330 mg/L after F1 dosing stopped

CCCCCCCCCCCCCCCCCC(=O)OO [peroxyoctadecanoic]
solubility in water ([1]; pH 7): very limited solubility

CC(=O)OO [Peracetic Acid, peroxyacetic acid]
biofilm disrupting activity compared with hydrogen peroxide (biofilm; vs hydrogen peroxide): stronger biofilm disrupting activity
biofilm disrupting activity compared with ozone (biofilm; vs ozone): stronger biofilm disrupting activity
Oxidation Potential ([2]; pH 7): 1.81 eV
DT50 (25° C.) ([3]; pH 4): 46.7 h
DT50 (25° C.) ([3]; pH 7): 31.7 h
DT50 (25° C.) ([3]; pH 9): 3.6 h
reactivity at 35° C. relative to 15° C. [4]: 5 times

OCl [Sodium Hypochlorite]
Oxidation Potential [2, 7]: 0.94 eV

CCCCCCCCCCCC(=O)OO [peroxydodecanoic]
solubility in water ([1]; pH 7): very limited solubility

O=[O+][O-] [Ozone]
Oxidation Potential ([2]; pH 7): 2.07 eV

[O][Cl+][O-] [Chlorine Dioxide]
Oxidation Potential ([2]; pH 7): 0.95 eV

S [Hydrogen Sulphide (H2S), Hydrogen Sulphide]
Mole Fraction of Species (%) ([5]; pH 4): >99%
Mole Fraction of Species (%) ([5]; pH 5): ~99%
Mole Fraction of Species (%) ([5]; pH 5.5): 97%
Mole Fraction of Species (%) ([5]; pH 6.0): 91%
Mole Fraction of Species (%) ([5]; pH 6.5): 76%
Mole Fraction of Species (%) ([5]; pH 7.5): 24%
Mole Fraction of Species (%) ([5]; pH 8.0): 9%
Mole Fraction of Species (%) ([5]; pH 8.5): 3%
Mole Fraction of Species (%) ([5]; pH 9.0): ~1%
Mole Fraction of Species (%) ([5]; pH 10.0): <1%

CCCCCCCC(=O)OO [peroxyoctanoic acid]
solubility in water ([1]; (at pH 7)): slightly soluble

CCOO [ethyl hydroperoxide]
binding by catalase (Catalase): rapidly
catalysis by catalase (Catalase): very inefficient

OO [Formulation H2O2, hydrogen peroxide]
Avg. H2S [6, 8]: 0.3 ppm
Peak H2S [6, 8]: 3 ppm
Avg. H2S ([6]; Days 69-81, H2O2 330 mg/L): 2.8 ppm
Peak H2S ([6]; Days 69-81, H2O2 330 mg/L): 72 ppm
Avg. H2S ([6]; Days 82-86, H2O2 1,000 mg/L): 3.7 ppm
Peak H2S ([6]; Days 82-86, H2O2 1,000 mg/L): 33 ppm
Oxidation Potential [2, 7]: 1.78 eV

S [Bisulphide (HS^−), Bisulphide]
Mole Fraction of Species (%) ([5]; pH 4): <1%
Mole Fraction of Species (%) ([5]; pH 5): ~1%
Mole Fraction of Species (%) ([5]; pH 5.5): 3%
Mole Fraction of Species (%) ([5]; pH 6.0): 9%
Mole Fraction of Species (%) ([5]; pH 6.5): 24%
Mole Fraction of Species (%) ([5]; pH 7.0): 50%
Mole Fraction of Species (%) ([5]; pH 7.5): 76%
Mole Fraction of Species (%) ([5]; pH 8.0): 91%
Mole Fraction of Species (%) ([5]; pH 8.5): 97%
Mole Fraction of Species (%) ([5]; pH 9.0): ~99%
Mole Fraction of Species (%) ([5]; pH 10.0): >99%
